The values below come from ChEMBL document CHEMBL1126913, “A homologous series of permanently charged 1,4-dihydropyridines: novel probes designed to localize drug binding sites on ion channels” (J Med Chem, 1993).

Molecules are shown by their SMILES.

As a reminder, the Ki is a dissociation constant, usually derived from enzyme kinetics or from competition with a known ligand.

This assay concerns the target Voltage-dependent L-type calcium channel subunit alpha-1C (Rattus norvegicus, UniProt P22002). The assay can be described thus: Inhibition of [3H](+)-PN200-110 binding to L-type calcium channel 1,4-DHP binding site of rat ventricular myocytes. Format: cell-based, Ventricular myocyte.

Sequence of Voltage-dependent L-type calcium channel subunit alpha-1C (P22002 whole entry): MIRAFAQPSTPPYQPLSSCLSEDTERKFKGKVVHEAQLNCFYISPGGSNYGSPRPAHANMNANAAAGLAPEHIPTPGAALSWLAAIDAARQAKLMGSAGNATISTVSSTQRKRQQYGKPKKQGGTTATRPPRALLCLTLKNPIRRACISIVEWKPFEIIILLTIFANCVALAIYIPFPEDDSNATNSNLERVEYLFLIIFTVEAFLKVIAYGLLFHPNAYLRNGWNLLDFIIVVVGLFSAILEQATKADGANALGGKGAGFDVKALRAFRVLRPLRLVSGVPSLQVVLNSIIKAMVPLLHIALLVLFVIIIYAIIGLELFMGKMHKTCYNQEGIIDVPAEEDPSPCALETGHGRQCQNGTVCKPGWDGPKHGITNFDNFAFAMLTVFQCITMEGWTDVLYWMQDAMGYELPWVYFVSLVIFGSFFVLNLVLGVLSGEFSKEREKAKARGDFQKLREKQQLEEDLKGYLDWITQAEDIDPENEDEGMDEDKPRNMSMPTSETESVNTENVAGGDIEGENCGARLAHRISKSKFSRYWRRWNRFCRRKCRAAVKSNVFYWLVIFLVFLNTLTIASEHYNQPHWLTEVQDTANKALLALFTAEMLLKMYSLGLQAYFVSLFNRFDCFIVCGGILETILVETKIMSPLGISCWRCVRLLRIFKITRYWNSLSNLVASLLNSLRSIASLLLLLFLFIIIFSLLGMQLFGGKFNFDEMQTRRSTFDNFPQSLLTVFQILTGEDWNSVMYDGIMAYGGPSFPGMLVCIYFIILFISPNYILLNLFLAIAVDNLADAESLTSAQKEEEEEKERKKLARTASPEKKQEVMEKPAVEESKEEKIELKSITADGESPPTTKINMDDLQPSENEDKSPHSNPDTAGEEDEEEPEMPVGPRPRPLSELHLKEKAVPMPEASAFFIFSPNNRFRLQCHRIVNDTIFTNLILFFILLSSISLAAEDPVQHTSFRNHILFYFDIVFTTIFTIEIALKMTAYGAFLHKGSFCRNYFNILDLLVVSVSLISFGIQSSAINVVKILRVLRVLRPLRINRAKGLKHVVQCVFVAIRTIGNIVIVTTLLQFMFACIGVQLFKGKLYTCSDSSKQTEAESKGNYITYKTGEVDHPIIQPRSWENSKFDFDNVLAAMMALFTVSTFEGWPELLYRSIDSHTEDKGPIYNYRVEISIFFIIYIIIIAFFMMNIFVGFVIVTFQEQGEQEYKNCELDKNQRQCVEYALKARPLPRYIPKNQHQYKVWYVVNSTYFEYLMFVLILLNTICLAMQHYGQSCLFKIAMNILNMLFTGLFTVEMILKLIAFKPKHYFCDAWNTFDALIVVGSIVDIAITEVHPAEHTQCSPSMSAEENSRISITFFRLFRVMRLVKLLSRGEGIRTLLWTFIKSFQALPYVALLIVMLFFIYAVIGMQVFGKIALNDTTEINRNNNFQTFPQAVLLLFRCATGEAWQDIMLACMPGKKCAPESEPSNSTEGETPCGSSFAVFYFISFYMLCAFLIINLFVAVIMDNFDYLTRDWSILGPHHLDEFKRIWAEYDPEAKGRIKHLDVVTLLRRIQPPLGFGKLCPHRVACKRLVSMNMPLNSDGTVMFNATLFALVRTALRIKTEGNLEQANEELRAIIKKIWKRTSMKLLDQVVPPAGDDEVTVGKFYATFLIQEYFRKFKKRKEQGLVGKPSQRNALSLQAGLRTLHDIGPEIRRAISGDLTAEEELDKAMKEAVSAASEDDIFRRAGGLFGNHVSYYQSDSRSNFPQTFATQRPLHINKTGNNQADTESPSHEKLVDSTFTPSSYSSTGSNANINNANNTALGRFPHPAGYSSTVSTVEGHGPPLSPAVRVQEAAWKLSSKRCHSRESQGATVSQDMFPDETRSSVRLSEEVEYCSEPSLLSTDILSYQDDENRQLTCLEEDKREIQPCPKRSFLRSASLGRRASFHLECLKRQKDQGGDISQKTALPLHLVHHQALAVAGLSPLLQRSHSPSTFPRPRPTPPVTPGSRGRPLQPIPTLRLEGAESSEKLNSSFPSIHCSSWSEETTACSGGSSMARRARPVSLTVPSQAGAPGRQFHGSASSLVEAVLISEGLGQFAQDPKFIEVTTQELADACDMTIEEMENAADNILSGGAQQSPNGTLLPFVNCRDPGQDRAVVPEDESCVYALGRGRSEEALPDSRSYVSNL

For the molecule `COC(=O)C1=C(C)NC(C)=C(C(=O)OCC[N+](C)(C)C)C1c1ccccc1C(F)(F)F` (configuration not stated), the Ki amounted to 33.2 nM.

In the case of `CCCCCCCCCCCCCCOC(=O)C1=C(C)NC(C)=C(C(=O)OC)C1c1ccccc1C(F)(F)F` (configuration not stated), the Ki was 15.7 nM.
